Measured values published in the NIST ThermoML archive (doi:10.1016/j.jct.2011.08.016).
Numbers after ± are expanded uncertainties.

Assay: xn = mol fraction of the nth substance listed
Conditions: Liquid, Vibrating tube method

CCCCCCCCCC [decane] + CCCCCCC
Conditions | mass density [kg/m3]
323.15 K, 7000 kPa, x2 = 0.0531 | 711.49 ± 0.44
323.15 K, 7000 kPa, x2 = 0.2594 | 703.89 ± 0.44
323.15 K, 8000 kPa, x2 = 0.0531 | 712.35 ± 0.44
323.15 K, 8000 kPa, x2 = 0.2594 | 704.79 ± 0.45
323.15 K, 9000 kPa, x2 = 0.0531 | 713.2 ± 0.45
323.15 K, 9000 kPa, x2 = 0.2594 | 705.68 ± 0.45
323.15 K, 10000 kPa, x2 = 0.0531 | 714.07 ± 0.45
323.15 K, 10000 kPa, x2 = 0.2594 | 706.56 ± 0.46
323.15 K, 10990 kPa, x2 = 0.0531 | 714.9 ± 0.46
323.15 K, 10990 kPa, x2 = 0.2594 | 707.43 ± 0.46
323.15 K, 12000 kPa, x2 = 0.0531 | 715.73 ± 0.46
323.15 K, 12000 kPa, x2 = 0.2594 | 708.29 ± 0.47
323.15 K, 13000 kPa, x2 = 0.0531 | 716.54 ± 0.47
323.15 K, 13000 kPa, x2 = 0.2594 | 709.14 ± 0.47
323.15 K, 14000 kPa, x2 = 0.0531 | 717.35 ± 0.47
323.15 K, 14000 kPa, x2 = 0.2594 | 709.98 ± 0.48
323.15 K, 15000 kPa, x2 = 0.0531 | 718.14 ± 0.48
323.15 K, 15000 kPa, x2 = 0.2594 | 710.81 ± 0.49
323.15 K, 16000 kPa, x2 = 0.0531 | 718.92 ± 0.48
323.15 K, 16000 kPa, x2 = 0.2594 | 711.62 ± 0.49
323.15 K, 17000 kPa, x2 = 0.0531 | 719.7 ± 0.49
323.15 K, 17000 kPa, x2 = 0.2594 | 712.43 ± 0.5
323.15 K, 18000 kPa, x2 = 0.0531 | 720.46 ± 0.5
323.15 K, 18000 kPa, x2 = 0.2594 | 713.25 ± 0.5
323.15 K, 19000 kPa, x2 = 0.0531 | 721.21 ± 0.5
323.15 K, 19000 kPa, x2 = 0.2594 | 714.01 ± 0.51
323.15 K, 20000 kPa, x2 = 0.0531 | 721.96 ± 0.51
323.15 K, 20000 kPa, x2 = 0.2594 | 714.78 ± 0.52
323.15 K, 21000 kPa, x2 = 0.0531 | 722.7 ± 0.51
323.15 K, 21000 kPa, x2 = 0.2594 | 715.55 ± 0.52
323.15 K, 22000 kPa, x2 = 0.0531 | 723.41 ± 0.52
323.15 K, 22000 kPa, x2 = 0.2594 | 716.3 ± 0.53
323.15 K, 23000 kPa, x2 = 0.0531 | 724.12 ± 0.53
323.15 K, 23000 kPa, x2 = 0.2594 | 716.98 ± 0.53
323.15 K, 24000 kPa, x2 = 0.0531 | 724.82 ± 0.53
323.15 K, 24000 kPa, x2 = 0.2594 | 717.65 ± 0.54
323.15 K, 25000 kPa, x2 = 0.0531 | 725.51 ± 0.54
323.15 K, 25000 kPa, x2 = 0.2594 | 718.3 ± 0.55
323.16 K, 1000 kPa, x2 = 0.777 | 673.59 ± 0.43
323.16 K, 2000 kPa, x2 = 0.777 | 674.58 ± 0.43
323.16 K, 3000 kPa, x2 = 0.777 | 675.56 ± 0.44
323.16 K, 4000 kPa, x2 = 0.777 | 676.57 ± 0.44
323.16 K, 5000 kPa, x2 = 0.777 | 677.56 ± 0.45
323.16 K, 6000 kPa, x2 = 0.777 | 678.57 ± 0.45
323.16 K, 7000 kPa, x2 = 0.777 | 679.58 ± 0.46
323.16 K, 8000 kPa, x2 = 0.777 | 680.57 ± 0.46
323.16 K, 9000 kPa, x2 = 0.777 | 681.56 ± 0.47
323.16 K, 10000 kPa, x2 = 0.777 | 682.54 ± 0.48
323.16 K, 10990 kPa, x2 = 0.777 | 683.5 ± 0.48
323.16 K, 12000 kPa, x2 = 0.777 | 684.45 ± 0.49
323.16 K, 13000 kPa, x2 = 0.777 | 685.39 ± 0.5
323.16 K, 14000 kPa, x2 = 0.777 | 686.31 ± 0.5
323.16 K, 15000 kPa, x2 = 0.777 | 687.21 ± 0.51
323.16 K, 16000 kPa, x2 = 0.777 | 688.1 ± 0.52
323.16 K, 17000 kPa, x2 = 0.777 | 688.99 ± 0.52
323.16 K, 18000 kPa, x2 = 0.777 | 689.87 ± 0.53
323.16 K, 19000 kPa, x2 = 0.777 | 690.73 ± 0.54
323.16 K, 20000 kPa, x2 = 0.777 | 691.58 ± 0.54
323.16 K, 21000 kPa, x2 = 0.777 | 692.41 ± 0.55
323.16 K, 22000 kPa, x2 = 0.777 | 693.22 ± 0.56
323.16 K, 23000 kPa, x2 = 0.777 | 693.96 ± 0.57
323.16 K, 24000 kPa, x2 = 0.777 | 694.7 ± 0.57
323.16 K, 25000 kPa, x2 = 0.777 | 695.42 ± 0.58
333.11 K, 1000 kPa, x2 = 0.5219 | 679.05 ± 0.42
333.11 K, 2000 kPa, x2 = 0.5219 | 680.06 ± 0.43
333.11 K, 3000 kPa, x2 = 0.5219 | 681.02 ± 0.43
333.11 K, 4000 kPa, x2 = 0.5219 | 682.02 ± 0.44
333.11 K, 5000 kPa, x2 = 0.5219 | 683.02 ± 0.44
333.11 K, 6000 kPa, x2 = 0.5219 | 684.02 ± 0.45
333.11 K, 7000 kPa, x2 = 0.5219 | 685.02 ± 0.45
333.11 K, 8000 kPa, x2 = 0.5219 | 686.03 ± 0.46
333.11 K, 9000 kPa, x2 = 0.5219 | 687.04 ± 0.46
333.11 K, 10000 kPa, x2 = 0.5219 | 688.03 ± 0.47
333.11 K, 10990 kPa, x2 = 0.5219 | 689.01 ± 0.48
333.11 K, 12000 kPa, x2 = 0.5219 | 689.97 ± 0.48
333.11 K, 13000 kPa, x2 = 0.5219 | 690.92 ± 0.49
333.11 K, 14000 kPa, x2 = 0.5219 | 691.85 ± 0.49
333.11 K, 15000 kPa, x2 = 0.5219 | 692.77 ± 0.5
333.11 K, 16000 kPa, x2 = 0.5219 | 693.68 ± 0.51
333.11 K, 17000 kPa, x2 = 0.5219 | 694.58 ± 0.51
333.11 K, 18000 kPa, x2 = 0.5219 | 695.49 ± 0.52
333.11 K, 19000 kPa, x2 = 0.5219 | 696.33 ± 0.53
333.11 K, 20000 kPa, x2 = 0.5219 | 697.15 ± 0.53
333.11 K, 21000 kPa, x2 = 0.5219 | 697.97 ± 0.54
333.11 K, 22000 kPa, x2 = 0.5219 | 698.76 ± 0.55
333.11 K, 23000 kPa, x2 = 0.5219 | 699.54 ± 0.55
333.11 K, 24000 kPa, x2 = 0.5219 | 700.3 ± 0.56
333.11 K, 25000 kPa, x2 = 0.5219 | 701.04 ± 0.57
333.12 K, 1000 kPa, x2 = 0.0531 | 698.2 ± 0.41
333.12 K, 1000 kPa, x2 = 0.777 | 665.15 ± 0.43
333.12 K, 2000 kPa, x2 = 0.0531 | 699.22 ± 0.42
333.12 K, 2000 kPa, x2 = 0.777 | 666.23 ± 0.43
333.12 K, 3000 kPa, x2 = 0.0531 | 700.22 ± 0.42
333.12 K, 3000 kPa, x2 = 0.777 | 667.33 ± 0.44
